Consider 1 compound from article PMC10459042, “Synthesis of 1,2,3-Triazole-Containing Methoxylated Cinnamides and Their Antileishmanial Activity against the Leishmania braziliensis Species” (Pharmaceuticals, 2023).

Values after ≈ are worked out from the molar mass of the structure shown.

In test [1] the test system is L. braziliensis-infected macrophages. The test can be described thus: ROS levels in Leishmania-infected macrophages (H2DCFDA). It counts as cell-based, Leishmania braziliensis. The settings on record: 5.0 µg/mL, 48 h at 37 °C. The procedure: Macrophages (1 × 10^6 cells/mL) were incubated in 96-well culture plates (Nunc, Nunclon, Roskilde, Denmark) and infected with L. braziliensis promastigotes (at a ratio of 10 parasites per cell). The infected macrophages were either left untreated or treated with Compound 28 (at a concentration of 5.0 µg/mL) for 48 h at 37 °C in 5% CO2. The cells were washed with PBS and incubated with 20 μmol/L H2DCFDA (Molecular Probes, Eugene, Oregon, USA) for 30 min in the dark. The fluorescence intensity was measured using a spectrofluorometer (FLx800; BioTek Instruments, Winooski, VT, USA) at 485 nm excitation and 528 nm emission. As a positive control, the infected macrophages were incubated with H2O2 at a concentration of 0.02 µg/mL (0.5 µmol/L). Parasites that were untreated with Compound 28 and not labeled with the fluorescent probe were used as the sample blank.
Figure 3 Production of ROS in L. braziliensis-infected macrophages treated with Compound 28. Leishmania braziliensis-infected macrophages (1 × 10^5 cells) were incubated with Compound 28 (5.0 µg/mL) for 48 h at 37 °C in a 5% CO2 environment. Subsequently, 2′,7′-dichlorodihydrofluorescein diacetate (H2DCFDA, 9.7 μg/mL) was added for 30 min under dark conditions. The fluorescence levels were measured in a spectrofluorometer at 485/528 nm. H2O2 (0.5 µmol/L) was used as a positive control. […]

Test [2] has as its system L. braziliensis promastigotes. Kind of test: ROS production in promastigotes (H2DCFDA). The class given is cell-based, Leishmania braziliensis. The note with it: one IC50 value, 48 h at 24 °C. The procedure:
After treatment with Compound 28 (at a concentration corresponding to one IC50 value) for 48 h at 24 °C, L. braziliensis promastigotes were washed with PBS, and the parasite concentration was adjusted to 3 × 10^6 cells per well. H2DCFDA (Sigma-Aldrich, St. Louis, MO, USA) was then added and incubated for 30 min in the dark, and samples were read in a fluorometric microplate reader (FLx800, BioTek Instruments, Winooski, VT, USA) with excitation and emission wavelengths of 485 and 528 nm, respectively. Parasites that were untreated or treated with Compound 28 and not labeled with the fluorescent probe were used as the blank.
Figure 4 ΔΨm and ROS production in Leishmania after exposure to Compound 28. Leishmania braziliensis promastigotes were not exposed (negative control) or exposed to Compound 28 (at a concentration corresponding to the IC50 value) for 48 h. (A) Depolarization of ΔΨm was evaluated using the JC-1 fluorescent probe. Samples were analyzed fluorometrically, and the results are expressed as the ratio of red/green fluorescence. FCCP ([…]) was used as a positive control. (B) ROS production was evaluated using the H2DCFDA probe. The fluorescence intensity was measured by fluorimetry, and the results are expressed as the fold increase in the ROS level compared with the non-treated control. H2O2-treated parasites were used as a positive control. […]

Test [3] relates to Leishmania braziliensis promastigotes. The test can be described thus: Depolarization of mitochondrial membrane potential (ΔΨm), JC-1. The class given is cell-based. The note with it: one IC50 value, 48 h at 24 °C; non-treated parasites 7.2. Here is the method:
Leishmania braziliensis promastigotes (1 × 10^7 cells/mL) were treated with compound 28 (at a concentration corresponding to one IC50 value) for 48 h at 24 °C. The parasites (3 × 10^6 cells/mL) were then labeled with JC-1 (5 µg/mL, Sigma-Aldrich, St. Louis, MO, USA) for 30 min at 37 °C. After washing twice with PBS to remove the non-internalized dye, the samples were added to a black 96-well plate, and the ΔΨm was analyzed in a spectrofluorometer (FLx800, BioTek Instruments, Winooski, VT, USA) with an excitation filter of 485 nm and emission wavelength of 528 nm and […] to measure the green and red fluorescence, respectively. The ΔΨm was determined using the ratio between the red/green fluorescence intensity. Parasites that were exposed to 1.3 µg/mL (5.0 µmol/L) of FCCP (Sigma-Aldrich, St. Louis, MO, USA) for 20 min were used as a control. […]
Figure 4 ΔΨm and ROS production in Leishmania after exposure to Compound 28. […] (A) Depolarization of ΔΨm was evaluated using the JC-1 fluorescent probe. Samples were analyzed fluorometrically, and the results are expressed as the ratio of red/green fluorescence. […] (B) ROS production was evaluated using the H2DCFDA probe. The fluorescence intensity was measured by fluorimetry, and the results are expressed as the fold increase in the ROS level compared with the non-treated control. […]

Test [4] has as its system Leishmania braziliensis stationary promastigotes. The test can be described thus: In vitro antileishmanial activity against promastigotes (MTT). The class given is cell-based. Here is the method:
The study was approved by the Committee for the Ethical Handling of Research Animals from the Federal University of Minas Gerais (protocol number 085/2017). Leishmania braziliensis (MHOM/BR/1975/M2904) promastigotes were grown at 24 °C in Schneider’s medium (Sigma-Aldrich, USA) supplemented with 20% heat-inactivated fetal bovine serum (FBS, Sigma-Aldrich, USA) and 20 mmol/L L-glutamine at pH 7.4 [65].
The in vitro antileishmanial activity was evaluated by incubating the promastigotes or axenic amastigotes (1 × 10^6 cells/well) with the 24 synthetic derivatives (Compounds 5–28; 0 to 600 µg/mL) in 96-well culture plates (Nunc, Nunclon, Roskilde, Denmark) for 48 h at 24 °C. Due to the difficulty in obtaining a high concentration of murine macrophages, the cytotoxicity experiment was evaluated by incubating such cells (5 × 10^5 per mL) with Compound 28 (0 to 600 µg/mL), which presented the best antileishmanial activity, for 48 h at 37 °C in a 5% CO2 environment. AmpB (0 to 10 µg/mL; Sigma-Aldrich, St. Louis, MO, USA) was used as a positive control in both experiments. The cell viability was assessed using the 3-(4.5-dimethylthiazol-2-yl)-2.5-diphenyl tetrazolium bromide (MTT, Sigma-Aldrich, St. Louis, MO, USA) method. The optical density (OD) values were read using a microplate spectrophotometer (Molecular Devices, Spectra Max Plus, San Jose, CA, USA) at 570 nm. Results were entered into Microsoft Excel (version 10.0) spreadsheets, and the 50% Leishmania and macrophage inhibitory concentrations (IC50 and CC50, respectively) were calculated by applying a sigmoidal regression of the dose–response curve. The SI was calculated by dividing the CC50 with the respective IC50 values.

Regarding `CCN(CC)c1ccc2cc(-n3cc(CNC(=O)/C=C/c4ccc(OC)c(OC)c4)nn3)c(=O)oc2c1` [Compound 28, N-((1-(7-(diethylamino)-2-oxo-2H-chromen-3-yl)-1H-1,2,3-triazol-4-yl)methyl) (3,4-dimethoxy) cinnamide], in test [1], the “Increase in ROS levels in treated and infected cells compared with untreated cells” value worked out at 44.1%. The “Fold increase in ROS production compared with untreated parasites” value in test [2] is 2.5 fold. Moreover, the “ΔΨm, JC-1 ratio of red/green fluorescence” value in test [3] turned out to be 4.0. For the same compound, the “Selectivity index (SI), ratio CC50/IC50, promastigotes” value in test [4] (CC50 murine macrophages / IC50 promastigotes) was 11.1. Further, in test [4] (Leishmania braziliensis, 48 h at 24 °C, MTT, mean ± standard deviation), half-maximal inhibition (IC50) was put at 106 ± 16.7 µg/mL (≈ 210 µM).
